A short description of data set [1]: MDCK-MDR1 permeability assay. Format: in vitro ADME. To be noted: dog, MDCK-MDR1. The protocol:
(§1) MDCK-MDR1 cells were plated into 96-well Millipore Millicell-96 plates at 7,500 cells/75 μL/well and incubated for three days at 37°C with 5% CO2. Cells were washed with Hank’s Balanced Salt Solution (HBSS) with 5 mM HEPES for 30 minutes before the experiment began. MK256 was prepared by diluting DMSO stock into HBSS buffer, resulting in a final DMSO concentration of 0.1%. Prior to the experiment, cell monolayer integrity was verified by […] electrical resistance (TEER). The transport experiment was initiated by adding MK256 to the apical (75 μL) or basal (250 μL) side. Transport plates were incubated at 37°C in a humidified incubator with 5% CO2. Samples were taken from the donor and acceptor compartments after one hour and analyzed by liquid chromatography with tandem mass spectrometry (LC/MS/MS). Digoxin was used as reference control. Apparent permeability (Papp) values were calculated using the following equation: Papp = (dQ/dt)/A/C0, where dQ/dt is the initial rate of amount of test compound transported across the cell monolayer, A is the surface area of the filter membrane, and C0 is the initial concentration of the test compound, calculated for each direction using a 4-point calibration curve by LC/MS/MS. Net flux ratio between the two directional transports was calculated by the following equation: Ratio = Papp, B-A/Papp, A-B, where Papp, B-A and Papp, A-B represent the apparent permeability of test compound from the basal-to-apical and apical-to-basal side of the cellular monolayer, respectively. Recovery was calculated based on the compound concentration at the end of the experiment, compared to that at the beginning of the experiment, adjusted for volumes.

Data set [2] concerns MDCK-MDR1 cells. In words: MDCK-MDR1 permeability assay. Format: in vitro ADME. Particulars: 5 μM. The protocol: as §1
The test system of data set [3] is MDR1. In words: MDCK-MDR1 permeability assay. Format: in vitro ADME. Particulars: dog, MDCK-MDR1, read-out: Efflux Ratio (B-A/A-B). The protocol:
as §1

The target in data set [4] is CYP1A2 (Homo sapiens, UniProt P05177). In words: Cytochrome P450 inhibition assay. Format: in vitro ADME. Particulars: 50 uM.
Data set [5] has as its target CYP2C9 (Homo sapiens, UniProt P11712). The data set can be described thus: Cytochrome P450 inhibition assay. Format: in vitro ADME. To be noted: 50 uM.
Data set [6] concerns the target CYP2D6 (Homo sapiens, UniProt P10635). In words: Cytochrome P450 inhibition assay. Format: in vitro ADME. Particulars: 50 uM.
Data set [7] has as its target hERG (Homo sapiens, UniProt Q12809). In words: hERG safety assay. To be noted: 30 uM.
Data set [8] deals with MOLM-14 xenograft model. The data set can be described thus: MOLM-14 xenograft efficacy study, single agent. To be noted: 50 mg/kg twice a day. It counts as in vivo, NOD SCID mice. Here is the method:
These favorable properties led us to evaluate the efficacy of MK256 in vivo using the MOLM-14 cell line to examine if the compound could inhibit tumor growth in the MOLM-14 xenograft model. Mice were given 100 ul of 50 mg/kg of MK256 or 100 ul of saline twice a day for 21 days following a 5-day on/ 2-day off schedule. Tumors from two groups of mice were all initially ~ 300 mm^3. Tumors of the mice in the control group continued to grow quickly during the 21-day period, with the average tumor volume reaching 1600 mm^3 on day 22, when we measured tumors for the last time. In the contrast, tumors of the mice in the treatment group shrank to 200 mm^3 on average by day 22 (Figure 9A). Average tumor weight was 0.16 g for the treatment group and 1.85 g for the control group (Figure 9B). […] Tumors collected on day 22 were then processed and analyzed with western blot.
Female NOD SCID mice were purchased from Charles River Laboratories (Wilmington, USA) or bred at the animal facilities of the University of California San Francisco. All animal experiments were carried out under protocols approved by the Institutional Animal Care and Use Committee of the University of California San Francisco. For MOLM-14 model, 200 ul of 1 × 10^6 cells combined with matrigel (v/v, 1:1) were injected subcutaneously in the right flank of NODSCID mice. Tumors were allowed to grow for two weeks to reach a tumor volume about 200 mm^3 before mice were randomly grouped. The animals were treated for three weeks on a 5 days on/2 days off schedule by oral gavage with MK256 (dissolved in saline) alone or in combination with Venetoclax (dissolved in 5% DMSO + 50% PEG 300 + 5% Tween 80 + ddH2O). In the single treatment study, MK256 was administered by mice twice a day at 50 mg/kg. In the combination study, MK256 (10 or 50 mg/kg) and was coadministered with Venetoclax (25 mg/kg) once a day. Tumor volume and body weight were monitored once every 3 days. Tumor volume was calculated as L × W^2/2, where L and W were the length and width of the tumor, respectively.

Data set [9] has as its system MOLM-14 cells. The data set can be described thus: Cell viability dose-response matrix of MK256 and venetoclax. Particulars: Homo sapiens, Venetoclax 0 nM, 72 hrs, read-out: percentage of cell viability. Format: cell-based. From the text:
Our earlier experiments showing the clearly increasing expression of BCL-2 in the MOLM-14 cell line led us to ask if there was any combinational effect between MK256 and a BCL-2 inhibitor in MOLM-14 cells. To address this question, we chose venetoclax (ABT-199), an FDA-approved BCL-2 inhibitor for AML and CLL, for the combination study. We treated MOLM-14 cells with MK256 and venetoclax at a series of concentration combinations, measured cell viability, and reported the data in a dose-response matrix (Figure 8). […] We also investigated the apoptotic effect of the combination treatment in the MOLM-14 cell line (Figure 10B).
Figure 10 (A) Dose-response matrix of percentage of cell viability of 10,000 MOLM-14 cells after 72 hrs treatment of MK256 and venetoclax at various concentration combinations. (B) Annexin V staining of 10,000 MOLM-14 cells after 72 hrs treatment of MK256 and venetoclax(ABT199) at various concentration combinations. Status of cells are labeled in the graph at the upper left corner. (C) Tumor growth of MOLM-14 xenograft model. Groups of control; ABT199 (25 mg/kg); ABT199 (25 mg/kg) + MK256 (10 mg/kg); ABT199 25 mg/kg + MK256 (50 mg/kg) were shown in straight line, dotted line, 3 dashed line and 2 dashed line, respectively. ^*** P < 0.001. (D) Body weight percentage of MOLM-14 tumor model. […]

CYP2D6, sequence (P10635 whole entry): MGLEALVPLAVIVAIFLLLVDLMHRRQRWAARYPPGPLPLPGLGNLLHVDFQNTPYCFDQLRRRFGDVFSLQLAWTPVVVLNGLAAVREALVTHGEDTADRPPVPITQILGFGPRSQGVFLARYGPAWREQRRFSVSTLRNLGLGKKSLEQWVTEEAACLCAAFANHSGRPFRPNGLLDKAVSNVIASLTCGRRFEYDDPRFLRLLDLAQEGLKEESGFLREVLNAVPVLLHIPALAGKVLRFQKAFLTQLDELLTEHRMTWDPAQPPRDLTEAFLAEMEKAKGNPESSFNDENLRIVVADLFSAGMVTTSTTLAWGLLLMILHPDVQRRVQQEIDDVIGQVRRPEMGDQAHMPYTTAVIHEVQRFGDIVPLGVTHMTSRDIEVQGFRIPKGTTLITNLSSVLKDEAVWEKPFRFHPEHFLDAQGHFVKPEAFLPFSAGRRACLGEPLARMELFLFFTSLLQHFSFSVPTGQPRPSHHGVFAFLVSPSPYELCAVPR
CYP1A2, sequence (P05177 whole entry): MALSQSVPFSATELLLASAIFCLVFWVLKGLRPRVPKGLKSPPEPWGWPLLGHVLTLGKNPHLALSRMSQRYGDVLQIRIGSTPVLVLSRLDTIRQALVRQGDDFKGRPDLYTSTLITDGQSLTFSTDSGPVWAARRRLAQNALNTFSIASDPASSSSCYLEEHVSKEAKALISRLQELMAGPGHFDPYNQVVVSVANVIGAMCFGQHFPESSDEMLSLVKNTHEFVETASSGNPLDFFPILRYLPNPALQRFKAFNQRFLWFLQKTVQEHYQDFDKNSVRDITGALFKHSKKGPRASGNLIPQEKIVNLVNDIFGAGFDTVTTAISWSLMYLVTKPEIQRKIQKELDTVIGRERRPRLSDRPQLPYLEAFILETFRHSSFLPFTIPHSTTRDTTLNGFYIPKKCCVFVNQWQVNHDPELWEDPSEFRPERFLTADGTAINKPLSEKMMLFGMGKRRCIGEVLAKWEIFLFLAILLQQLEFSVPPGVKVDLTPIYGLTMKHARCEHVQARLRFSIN
hERG, sequence (Q12809 whole entry): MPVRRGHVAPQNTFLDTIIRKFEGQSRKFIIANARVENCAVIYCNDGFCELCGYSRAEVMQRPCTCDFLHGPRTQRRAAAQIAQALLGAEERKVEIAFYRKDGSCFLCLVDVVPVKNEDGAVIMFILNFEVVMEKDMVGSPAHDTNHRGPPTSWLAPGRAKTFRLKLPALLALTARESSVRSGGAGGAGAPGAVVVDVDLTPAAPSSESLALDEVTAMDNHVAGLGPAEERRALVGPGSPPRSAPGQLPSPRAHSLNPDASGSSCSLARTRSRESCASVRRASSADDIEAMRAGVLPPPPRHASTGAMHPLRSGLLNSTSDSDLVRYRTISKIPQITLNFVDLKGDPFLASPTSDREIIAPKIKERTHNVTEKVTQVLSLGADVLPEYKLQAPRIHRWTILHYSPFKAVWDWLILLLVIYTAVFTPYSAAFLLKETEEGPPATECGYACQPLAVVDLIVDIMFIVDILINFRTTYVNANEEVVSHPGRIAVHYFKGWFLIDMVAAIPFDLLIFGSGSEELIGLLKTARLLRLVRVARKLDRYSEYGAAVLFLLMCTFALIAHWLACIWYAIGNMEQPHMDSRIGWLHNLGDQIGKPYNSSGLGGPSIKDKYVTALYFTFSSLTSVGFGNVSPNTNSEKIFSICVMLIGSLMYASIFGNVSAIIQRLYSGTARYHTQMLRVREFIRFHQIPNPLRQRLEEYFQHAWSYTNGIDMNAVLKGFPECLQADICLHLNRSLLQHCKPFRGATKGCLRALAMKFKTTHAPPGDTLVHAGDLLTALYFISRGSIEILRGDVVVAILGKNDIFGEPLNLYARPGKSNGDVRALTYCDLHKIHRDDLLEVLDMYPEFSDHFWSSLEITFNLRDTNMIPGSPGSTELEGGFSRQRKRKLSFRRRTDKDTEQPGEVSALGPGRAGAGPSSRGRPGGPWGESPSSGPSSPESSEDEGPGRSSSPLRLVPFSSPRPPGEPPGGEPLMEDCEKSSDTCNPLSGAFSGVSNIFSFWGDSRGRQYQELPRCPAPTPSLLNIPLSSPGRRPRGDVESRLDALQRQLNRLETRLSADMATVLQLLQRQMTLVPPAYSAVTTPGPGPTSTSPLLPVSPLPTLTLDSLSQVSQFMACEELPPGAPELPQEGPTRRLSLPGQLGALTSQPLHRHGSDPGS
CYP2C9, sequence (P11712 whole entry): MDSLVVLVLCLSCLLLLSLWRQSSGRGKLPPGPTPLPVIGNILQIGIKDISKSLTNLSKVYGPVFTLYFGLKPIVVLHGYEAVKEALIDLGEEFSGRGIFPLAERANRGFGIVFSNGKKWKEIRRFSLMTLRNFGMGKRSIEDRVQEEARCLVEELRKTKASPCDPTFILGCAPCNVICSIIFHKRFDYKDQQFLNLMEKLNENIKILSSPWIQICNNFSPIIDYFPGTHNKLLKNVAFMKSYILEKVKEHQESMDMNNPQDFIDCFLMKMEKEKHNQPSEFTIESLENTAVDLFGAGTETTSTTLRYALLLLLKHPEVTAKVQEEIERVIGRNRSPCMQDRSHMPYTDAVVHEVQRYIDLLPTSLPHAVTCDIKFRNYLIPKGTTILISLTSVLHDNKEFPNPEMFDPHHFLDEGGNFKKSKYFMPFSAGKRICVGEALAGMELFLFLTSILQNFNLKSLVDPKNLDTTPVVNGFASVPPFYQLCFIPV

Take `Nc1nccc2c(Br)cc3cc(C(=O)O)ccc3c12` [MK256]: the Papp A→B (commonly how fast a substance crosses the layer from the apical side) at 1 h, 5 μM in data set [1] turned out to be 57 ×10⁻⁶ cm/s. In [1], the Papp B→A – broadly, the apparent permeability from the basolateral to the apical side of a cell layer – at 1 h, 5 μM worked out at 14 ×10⁻⁶ cm/s. The “Recover rate (%)” value in [2] is recorded as 96%. The efflux ratio at 1 h, 5 µM in [3] was determined as 0.2. Also, the “cytochrome P450 inhibition” value in data set [4], in data set [5] and in data set [6] was “no inhibition” throughout. Moreover, the “inhibition of hERG” value in data set [7] was “no inhibition”. Besides, in data set [8], the “expression level of p-STAT1(S727) and p-STAT5(S726) in tumors collected on day 22” value is listed as “down regulate”. Moreover, the “average tumor volume on day 22” value in [8] (5-day on/2-day off, 21 days, start ~300 mm^3, control 1600 mm^3) amounted to 200 mm^3. Besides, the average tumor weight in data set [8] (day 22, control 1.85 g) was 0.16 g. In [8] (from 23.5 g at start, control 23.4 g to 25.7 g), the “average body weight at end of study” value was 23.9 g. Besides, the viability (as a rule, a read-out of living cells in per cent, often relative to untreated cells) at 0.0015 µM in [9] (MK256 1.5 nM) came out at 110%. Further, in [9] (MK256 4.6 nM), the viability at 0.0046 µM came to 101%. Besides, the viability at 0.0137 µM in data set [9] (MK256 13.7 nM) was determined as 103%. Moreover, the viability at 0.0412 µM in data set [9] (MK256 41.2 nM) amounted to 103%. Besides, in data set [9] (MK256 123.5 nM), the viability at 0.1235 µM worked out at 100%. For the same compound, the viability at 0.3704 µM in [9] (MK256 370.4 nM) came to 90%. In addition, the viability at 1.1 µM in data set [9] (MK256 1100 nM) amounted to 32%. Further, the viability at 10 µM in data set [9] (MK256 10000 nM) is 0%. In data set [9] (MK256 30000 nM), the viability at 30 µM is 0%.

For the origin of these results see article PMC9629815, “MK256 is a novel CDK8 inhibitor with potent antitumor activity in AML through downregulation of the STAT pathway” (Oncotarget, 2022).
